Measurements reported in patent US8440837B2, “2-substituted-ethynylthiazole derivatives and uses of same” (H. Lundbeck A/S, priority 2009, dated 2013).

Tests used:
[1] = tested on: working memory processes (cognition); assay: Novel object recognition (NOR) test; assay type: in vivo, rats
Procedure: Cognition can be assessed by the novel object recognition (NOR). NOR can be used to access cognitive performance with respect to processes of working memory, such as recognition, interpretation and appropriate response. The NOR test was performed using the compound of Example 1 and reference compound in vehicle of 20% β-cyclodextrin (βCD) in dH2O. Example 1 (at 3.0 mg/kg, ip in rats) has activity as measured in the NOR test. Along with Example 1, Examples 2, 12 and 35 (at 1.0 mg/kg, po in rats) have activity as measured in the NOR test.

[2] = target: human metabotropic glutamate receptor 5 (hmGluR5) (UniProt P31424); assay: Calcium mobilization (FLIPR) assay, positive allosteric modulation of the EC20 glutamate response; assay type: cell-based; conditions: HEK 293 cells; for maximum modulation (Emax): EC20 glutamate response; for EC50: increase in EC20 glutamate response
Procedure: The cDNA for human metabotropic glutamate receptor 5 (hmGluR5) was a generous gift from S. Nakanishi (Kyoto University, Kyoto, Japan). The […] was stably expressed in a HEK 293 cell line and grown in Dulbecco's Modified Eagle Medium (DMEM) (Invitrogen, Carlsbad, Calif.) with supplements (10% bovine calf serum, 4 mM glutamine, 100 units/mL penicillin, 100 μg/mL streptomycin and […]) at 37° C., 5% CO2. Twenty-four hours prior to assay, cells were seeded into 384-well black wall microtiter plates coated with poly-D-lysine. Just prior to assay, media was aspirated and cells dye-loaded (25 μL/well) with 3 μM Fluo-4/0.01% pluronic acid in assay buffer (Hank's Balanced Saline Solution (HBSS)): 150 mM NaCl, 5 mM KCl, 1 mM CaCl2, 1 mM MgCl2, plus 20 mM N-2-Hydroxyethylpiperazine-N′-2-ethanesulfonic acid (HEPES), pH 7.4, 0.1% bovine serum albumin (BSA) and 2.5 mM probenicid) for 1 hour in 5% CO2 at 37° C. After excess dye was discarded, cells were washed in assay buffer and layered with a final volume equal to 30 μL/well. Basal fluorescence is monitored in a fluorometric imaging plate reader (FLIPR) (Molecular Devices, Sunnyvale, Calif.) with an excitation wavelength of 488 nm and an emission range of 500 to 560 nm. Laser excitation energy was adjusted so that basal fluorescence readings were approximately 10,000 relative fluorescent units. Cells were stimulated with an EC20 or an EC80 concentration of glutamate in the presence of a compound to be tested, both diluted in assay buffer, and relative fluorescent units were measured at defined intervals (exposure=0.6 sec) over a 3 min period at room temperature. Basal readings derived from negative controls were subtracted from all samples. Maximum change in fluorescence was calculated for each well. Concentration-response curves derived from the maximum change in fluorescence were analyzed by nonlinear regression (Hill equation).
A silent allosteric modulator (SAM) can be identified by using a combination of both the calcium mobilization assay data and the radioligand binding data. As used herein, the term “silent allosteric modulator” refers to a ligand that binds to an allosteric site of the receptor but has no measurable intrinsic efficacy.

[3] = target: mGluR5 (Homo sapiens, UniProt P41594); assay: [3H] MPEP radioligand filtration binding assay on membrane homogenates; conditions: 5 nM [3H] MPEP, Cheng-Prusoff from IC50
Procedure: Binding assays were performed as described in [J. A. O'Brien et al. Mol. Pharmacol., 2003, 64, 731-740] with slight modifications. Briefly, after thawing, the membrane homogenates were resuspended in 50 mM Tris-HCl, 0.9% NaCl binding buffer at pH 7.4 to a final assay concentration of 20 μg protein/well for [^3H] […] ([^3H] MPEP) (American Radiolabeled Chemicals, Inc., St. Louis, Mo.) filtration binding. Incubations included 5 nM [^3H] MPEP, membranes and either buffer or varying concentrations of compound. Samples were incubated for 60 min at room temperature with shaking. Non-specific binding was defined with 10 μM MPEP. After incubation, samples were filtered over a GF/C filter (presoaked in 0.25% polyethyleneimine (PEI)) and then washed 4 times using a Tomtec® Harvester 96® Mach III cell harvester (Tomtec, Hamden, Conn.) with 0.5 mL ice-cold 50 mM Tris-HCl (pH 7.4).
IC50 values were derived from the inhibition curve and Ki values were calculated according to the Cheng and Prusoff equation of Ki=IC50/(1+[L]/Kd) described in [Y. Cheng and W. H. Prusoff Biochem. Pharmacol. 1973, 22, 3099-3108] where [L] is the concentration of radioligand and Kd is its dissociation constant at the receptor, derived from the saturation isotherm.

Sequence of mGluR5 (P41594 21-1212): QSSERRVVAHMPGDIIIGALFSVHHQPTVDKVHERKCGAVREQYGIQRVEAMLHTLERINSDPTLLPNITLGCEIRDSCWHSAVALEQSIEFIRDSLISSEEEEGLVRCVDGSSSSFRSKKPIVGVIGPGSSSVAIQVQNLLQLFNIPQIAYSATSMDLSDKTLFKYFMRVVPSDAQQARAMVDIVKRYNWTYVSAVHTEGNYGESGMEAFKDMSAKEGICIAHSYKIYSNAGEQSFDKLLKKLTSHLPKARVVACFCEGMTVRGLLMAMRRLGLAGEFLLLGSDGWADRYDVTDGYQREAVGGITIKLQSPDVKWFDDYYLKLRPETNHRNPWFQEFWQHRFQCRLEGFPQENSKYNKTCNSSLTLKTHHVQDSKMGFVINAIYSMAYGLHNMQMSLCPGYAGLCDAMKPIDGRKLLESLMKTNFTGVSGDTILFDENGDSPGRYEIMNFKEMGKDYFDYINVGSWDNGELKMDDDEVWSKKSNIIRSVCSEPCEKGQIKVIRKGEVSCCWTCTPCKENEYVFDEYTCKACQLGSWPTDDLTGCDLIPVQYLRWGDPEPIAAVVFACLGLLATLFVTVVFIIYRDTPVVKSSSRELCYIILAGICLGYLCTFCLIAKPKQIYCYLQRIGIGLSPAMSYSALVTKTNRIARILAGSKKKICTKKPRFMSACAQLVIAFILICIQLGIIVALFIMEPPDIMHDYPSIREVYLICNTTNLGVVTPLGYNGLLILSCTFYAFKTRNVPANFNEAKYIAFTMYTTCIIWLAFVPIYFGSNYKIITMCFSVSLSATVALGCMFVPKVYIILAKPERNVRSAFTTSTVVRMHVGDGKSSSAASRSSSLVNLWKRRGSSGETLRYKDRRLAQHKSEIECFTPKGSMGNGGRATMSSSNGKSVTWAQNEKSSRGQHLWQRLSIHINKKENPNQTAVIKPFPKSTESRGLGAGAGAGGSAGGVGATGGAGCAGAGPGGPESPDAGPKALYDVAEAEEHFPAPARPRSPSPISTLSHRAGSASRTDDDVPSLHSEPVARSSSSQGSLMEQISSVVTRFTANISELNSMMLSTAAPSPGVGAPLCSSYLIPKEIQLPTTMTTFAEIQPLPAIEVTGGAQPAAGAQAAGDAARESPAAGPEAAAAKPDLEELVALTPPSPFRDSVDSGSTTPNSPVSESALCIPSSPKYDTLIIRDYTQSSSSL

Row | Compound | activity in the NOR test ([1]; 1.0 mg/kg, po in rats, FIG. 2) | activity in the NOR test ([1]; 3.0 mg/kg, ip in rats, FIG. 1) | maximum modulation (Emax) [2] [%] | EC50 [2] [nM] | Ki [3] [nM]
1 | O=C(c1cnc(C#Cc2cccc(Cl)c2)s1)N1CCCCC1 [Example 35, [2-(3-Chloro-phenylethynyl)-thiazol-5-yl]-piperidin-1-yl-methanone] | have activity |  |  |  | 
2 | O=C(c1cnc(C#Cc2ccccc2)s1)N1CCCCC1 [Example 1, (2-Phenylethynyl-thiazol-5-yl)-piperidin-1-yl-methanone] | have activity | has activity | 210 | 3.6 | 139
3 | O=C(c1cnc(C#Cc2ccccc2)s1)N1CCOCC1 [Example 7, Morpholin-4-yl-(2-phenylethynyl-thiazol-5-yl)-methanone] |  |  |  |  | 860
4 | O=C(c1cnc(C#Cc2cccc(F)c2)s1)N1CCOCC1 [Example 22, [2-(3-Fluoro-phenylethynyl)-thiazol-5-yl]-morpholin-4-yl-methanone] |  |  |  |  | 300
5 | O=C(c1cnc(C#Cc2ccccc2)s1)N1CCC(F)CC1 [Example 2, (4-Fluoro-piperidin-1-yl)-(2-phenylethynyl-thiazol-5-yl)-methanone] | have activity |  | 130 | 7.9 | 192
6 | CC1CCN(C(=O)c2cnc(C#Cc3ccccc3)s2)CC1 [Example 11, (4-Methyl-piperidin-1-yl)-(2-phenylethynyl-thiazol-5-yl)-methanone] |  |  | 150 | 3.5 | 135
7 | O=C(c1cnc(C#Cc2ccccc2)s1)N1CCC(O)CC1 [Example 12, (4-Hydroxy-piperidin-1-yl)-(2-phenylethynyl-thiazol-5-yl)-methanone] | have activity |  | 170 | 280 | 7170
